Test results reported in patent US20240190887A1, “COMPOUND USED AS SHP2 INHIBITOR AND USE THEREOF” (TYK MEDICINES, INC., priority 2021, published 2024).

Legend:
full-length SHP2 protein = target: T1, full-length SHP2 protein (Homo sapiens, UniProt Q06124); assay: In vitro SHP2 enzyme activity inhibition (DiFMUP substrate, SHP2 activating peptide); assay type: biochemical; conditions: full-length SHP2 protein with activating peptide, 8 concentrations, read-out: IC50 of compounds inhibiting SHP2 enzyme activity
T1 construct: Purified full-length SHP2 protein (Kamed Bio-Tianjin); purchased Kamed Bio-Tianjin
T1 sequence (Q06124 1-593): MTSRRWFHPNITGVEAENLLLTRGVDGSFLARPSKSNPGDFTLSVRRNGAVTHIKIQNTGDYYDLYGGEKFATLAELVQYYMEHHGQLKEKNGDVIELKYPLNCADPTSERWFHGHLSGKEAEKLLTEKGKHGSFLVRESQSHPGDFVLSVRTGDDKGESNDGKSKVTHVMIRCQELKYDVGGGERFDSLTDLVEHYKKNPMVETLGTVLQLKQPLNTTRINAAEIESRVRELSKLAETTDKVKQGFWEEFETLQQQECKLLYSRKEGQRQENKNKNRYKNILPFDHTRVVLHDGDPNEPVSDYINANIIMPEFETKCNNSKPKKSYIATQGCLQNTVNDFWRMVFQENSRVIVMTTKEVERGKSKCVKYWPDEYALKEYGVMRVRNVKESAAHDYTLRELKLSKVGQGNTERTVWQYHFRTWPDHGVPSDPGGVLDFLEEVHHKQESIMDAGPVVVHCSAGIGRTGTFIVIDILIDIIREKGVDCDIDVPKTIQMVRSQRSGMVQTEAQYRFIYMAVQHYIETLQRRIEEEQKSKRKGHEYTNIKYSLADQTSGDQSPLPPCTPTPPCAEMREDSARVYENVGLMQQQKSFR
Method: • a) Purified full-length SHP2 protein (Kamed Bio-Tianjin) • b) SHP2 activating peptide (BPS Bioscience). • c) DiFMUP. • d) Reaction buffer (120 mM HEPES pH 7.2, 200 mM NaCl, 1 mM EDTA, 0.002% Brij35), added with 0.04% BSA after autoclave, stored at 4° C.; diluted to 1× before use, and added with 2 mM DTT.
• a) The 384-well plates were filled with 10 uL solution of compound to be tested (No. 2), 3-fold gradient dilution, totaling 8 concentrations; • b) The sample wells to be tested were added with 5 uL of […] activating peptide (No. 4, 2 uM) and 5 uL of 4×full-length SHP2 protein (0.88 nM), control wells were free of inhibitor, and blank wells were free of SHP2 activating peptide and inhibitor; • c) 384-well plate was sealed, mixed well and incubated at room temperature for 1 hr; • d) After adding 5 uL 5×DiFMUP (125 uM), 384-well plate was sealed, mixed well and incubated at room temperature for 1 hr, and then detected by En Vision;
% Inhibition=[1−(RFUsample−RFUblank)/(RFUtotal−RFUblank)]×100
Non-linear regression analysis was performed using Graphpad 8.0, and the IC50 values for each compound were obtained by fitting a curve of enzyme activity with compound concentration through the equation Y=Bottom+(Top−Bottom)/(1+10^((LogIC50−X)*Hill Slope)).

MV4-11 cells = assay: Compound activity in MV4-11 cells (72 hr, cell viability by CTG method); assay type: cell-based; conditions: Homo sapiens, 72 hr incubation
Method: MV4-11 cells in logarithmic growth phase were taken, prepared into cell suspension, inoculated in 96-well plates at 160 uL/well with an inoculation density of 5000 cells/well, and cultured overnight in a 37° C. cell culture incubator. A 5× solution of the compound to be tested was prepared with 4-fold gradient dilution, and a total of 8 concentrations with double duplicate wells. The solution of the compound to be tested was added into 96-well plate at 40 uL/well, and the blank and control wells were added with corresponding volume of solvent, shaken and mixed well, and then incubated in 37° C. cell incubator for 72 hr, and the cell viability was detected by CTG method.
Equation (Sample−blank)/(control−blank)*100% was used to convert raw data to inhibition rate, and the IC50 value could be obtained by curve fitting with four parameters (obtained with “log(inhibitor) vs. response—Variable slope” model in GraphPad Prism), and the results are shown in Table III. (In the table below, the following designations are used: <100 nM=A; 100-500 nM=B; >500 nM=C).

Structure (SMILES)	IC50 (full-length SHP2 protein)	IC50 (MV4-11 cells)
C[C@@H]1OCC2(CCN(c3nc4cnn(-c5ccnc(N)c5Cl)c4nc3CO)CC2)[C@@H]1N [WO2021148010A1 Example 5, reference compound]	50 to 500 nM	100 to 500 nM
Cc1nc(N2CCC3(CC2)CO[C@@H](C)[C@H]3N)c(CO)nc1Sc1ccnc(N)c1Cl [RMC-4630, reference compound]	< 50 nM	< 100 nM
C[C@@H]1OCC2(CCN(c3nc4cnn(-c5ccc6ccn(C)c6c5)c4nc3CO)CC2)[C@@H]1N [Compound C12]	< 50 nM	< 100 nM
C[C@@H]1OCC2(CCN(c3nc4cnn(-c5ccc6nnn(C)c6c5)c4nc3CO)CC2)[C@@H]1N [Compound C17]	< 50 nM	< 100 nM
C[C@@H]1OCC2(CCN(c3nc4cnn(-c5ccc6cnn(C)c6c5)c4nc3C(F)F)CC2)[C@@H]1N [Compound C16]	< 50 nM	
C[C@@H]1OCC2(CCN(c3nc4cnn(-c5ccc6c(cnn6C)c5)c4nc3CO)CC2)[C@@H]1N [Compound C11]	< 50 nM	< 100 nM
C[C@@H]1OCC2(CCN(c3nc4cnn(-c5cccc6c5CCN6C)c4nc3CO)CC2)[C@@H]1N [Compound C13]	< 50 nM	
C[C@@H]1OCC2(CCN(c3nc4cnn(-c5cccc6c5ccn6C)c4nc3CO)CC2)[C@@H]1N [Compound C5]	< 50 nM	< 100 nM
C[C@@H]1OCC2(CCN(c3nc4cnn(-c5ccc6nn(C)cc6c5Cl)c4nc3CO)CC2)[C@@H]1N [Compound C6]	< 50 nM	< 100 nM
CCn1ncc2ccc(-n3ncc4nc(N5CCC6(CC5)CO[C@@H](C)[C@H]6N)c(CO)nc43)cc21 [Compound C18]	< 50 nM	
C[C@@H]1OCC2(CCN(c3nc4cnn(-c5ccc6cn[nH]c6c5)c4nc3CO)CC2)[C@@H]1N [Compound C15]	< 50 nM	< 100 nM
C[C@@H]1OCC2(CCN(c3nc4cnn(-c5ccc6cnn(C)c6c5)c4nc3CO)CC2)[C@@H]1N [Compound C4]	< 50 nM	< 100 nM
C[C@@H]1OCC2(CCN(c3nc4cnn(-c5ccc6cn(C)nc6c5)c4nc3CO)CC2)[C@@H]1N [Compound C14]	< 50 nM	
